The numbers were not newly measured in US20220331268A1, “TREATMENT OF SKIN DISORDERS WITH TOPICAL COMBINATION COMPOSITIONS COMPRISING TAPINAROF AND AN ADDITIONAL AHR ACTIVATOR” (Sol-Gel Technologies Ltd., priority 2019, published 2022), which cites them from elsewhere.

The conditions of data set [1]: psoriasis treatment, single drug; placebo 20.2%.
For data set [2] the following is noted: across all groups treated.
The conditions of data set [3]: 1% tapinarof arm compared with 0.5% arm or vehicle.
Data set [4] relates to interleukin-6 and interleukin-17A. The conditions noted are these: mouse models and in vitro human skin studies.

A value given as a limit tells only on which side of the number the result lay.

With `CC(C)c1c(O)cc(/C=C/c2ccccc2)cc1O` [Tapinarof, 3,5-dihydroxy-4-isopropyl-trans-stilbene], the adverse effects in data set [1] was 44.5%. Also, in data set [2], the “contact dermatitis (side-effect, among most common)” value is over 5% and the “folliculitis (side-effect)” value is 9%. In addition, in data set [3], the efficacy entry was “higher efficacy” and the onset of action entry is recorded as “quicker onset of action”. In data set [4], the “effect on proinflammatory mediators including interleukin-6 and interleukin-17A” value is “inhibit”; the skin barrier function result is recorded as “enhance skin barrier function”.
As to `C=C1/C(=C\C=C2/CCC[C@]3(C)[C@@H]([C@H](C)/C=C/[C@@H](O)C4CC4)CC[C@@H]23)C[C@@H](O)C[C@@H]1O` [calcipotriene], the adverse effects in data set [1] was 19.5%.
